Patent publication US20140093592A1, “[…] THE TREATMENT OF TREATMENT-[…] TREATMENT-RESISTANT DEPRESSION” (Janssen Pharmaceutica NV, priority 2012, published 2014)

Key:
[1] = tested on: patients with major depressive disorders; settings: cited from earlier work
[2] = tested on: adult subjects with treatment-resistant depression (TRD); assay: Clinician-Assessed Dissociative Symptom Scale (CADSS) total score, same clinical study
[3] = tested on: adult subjects with treatment-resistant depression (TRD); assay: Brief Psychiatric Rating Scale (BPRS) total score, same clinical study; settings: 0.40 mg/kg
[4] = 0.20 mg/kg, Day 1 (4 Hour), baseline Day 1
[5] = 0.20 mg/kg, Day 1 (40 Min), baseline Day 1
[6] = 0.20 mg/kg, Day 2, baseline Day 1
[7] = 0.20 mg/kg, Day 4 (4 Hour), baseline Day 4
[8] = 0.20 mg/kg, Day 4 (40 Min), baseline Day 4
[9] = 0.20 mg/kg, Day 5, baseline Day 4
[10] = 0.40 mg/kg, Day 1 (4 Hour), baseline Day 1
[11] = 0.40 mg/kg, Day 1 (40 Min), baseline Day 1
[12] = 0.40 mg/kg, Day 2, baseline Day 1
[13] = 0.40 mg/kg, Day 4 (4 Hour), baseline Day 4
[14] = 0.40 mg/kg, Day 4 (40 Min), baseline Day 4
[15] = 0.40 mg/kg, Day 5, baseline Day 4

SMILES: CNC1(c2ccccc2Cl)CCCCC1=O (racemic) [ketamine]
- Onset of rapid antidepressant effect [1]: within two hours

SMILES: CN[C@]1(c2ccccc2Cl)CCCCC1=O.Cl [Esketamine, (S)-2-(2-chlorophenyl)-2-(methylamino)cyclohexanone hydrochloride]
- CADSS total score, Mean (SD) ([2]; 0.20 mg/kg, Day 1 (4 Hour)): 0.00 (0.000)
- CADSS total score, Median ([2]; 0.20 mg/kg, Day 1 (4 Hour)): 0.00
- CADSS total score change from baseline, Mean (SD) [2, 4]: 0.00 (0.000)
- CADSS total score change from baseline, Median [2, 4]: 0.00
- CADSS total score, Mean (SD) ([2]; 0.20 mg/kg, Day 1 (40 Min)): 15.56 (24.653)
- CADSS total score, Median ([2]; 0.20 mg/kg, Day 1 (40 Min)): 4.00
- CADSS total score change from baseline, Mean (SD) [2, 5]: 15.56 (24.653)
- CADSS total score change from baseline, Median [2, 5]: 4.00
- CADSS total score, Mean (SD) ([2]; 0.20 mg/kg, Day 1 (Predose)): 0.00 (0.000)
- CADSS total score, Median ([2]; 0.20 mg/kg, Day 1 (Predose)): 0.00
- CADSS total score, Mean (SD) ([2]; 0.20 mg/kg, Day 2): 0.22 (0.667)
- CADSS total score, Median ([2]; 0.20 mg/kg, Day 2): 0.00
- CADSS total score change from baseline, Mean (SD) [2, 6]: 0.22 (0.667)
- CADSS total score change from baseline, Median [2, 6]: 0.00
- CADSS total score, Mean (SD) ([2]; 0.20 mg/kg, Day 4 (4 Hour)): 0.22 (0.667)
- CADSS total score, Median ([2]; 0.20 mg/kg, Day 4 (4 Hour)): 0.00
- CADSS total score change from baseline, Mean (SD) [2, 7]: 0.22 (0.667)
- CADSS total score change from baseline, Median [2, 7]: 0.00
- CADSS total score, Mean (SD) ([2]; 0.20 mg/kg, Day 4 (40 Min)): 6.38 (7.963)
- CADSS total score, Median ([2]; 0.20 mg/kg, Day 4 (40 Min)): 4.00
- CADSS total score change from baseline, Mean (SD) [2, 8]: 6.38 (7.963)
- CADSS total score change from baseline, Median [2, 8]: 4.00
- CADSS total score, Mean (SD) ([2]; 0.20 mg/kg, Day 4 (Predose)): 0.00 (0.000)
- CADSS total score, Median ([2]; 0.20 mg/kg, Day 4 (Predose)): 0.00
- CADSS total score, Mean (SD) ([2]; 0.20 mg/kg, Day 5): 0.11 (0.333)
- CADSS total score, Median ([2]; 0.20 mg/kg, Day 5): 0.00
- CADSS total score change from baseline, Mean (SD) [2, 9]: 0.11 (0.333)
- CADSS total score change from baseline, Median [2, 9]: 0.00
- CADSS total score, Mean (SD) ([2]; 0.40 mg/kg, Day 1 (4 Hour)): 0.36 (1.206)
- CADSS total score, Median ([2]; 0.40 mg/kg, Day 1 (4 Hour)): 0.00
- CADSS total score change from baseline, Mean (SD) [2, 10]: −0.55 (1.036)
- CADSS total score change from baseline, Median [2, 10]: 0.00
- CADSS total score, Mean (SD) ([2]; 0.40 mg/kg, Day 1 (40 Min)): 22.00 (9.192)
- CADSS total score, Median ([2]; 0.40 mg/kg, Day 1 (40 Min)): 23.00
- CADSS total score change from baseline, Mean (SD) [2, 11]: 21.56 (9.645)
- CADSS total score change from baseline, Median [2, 11]: 23.00
- CADSS total score, Mean (SD) ([2]; 0.40 mg/kg, Day 1 (Predose)): 0.91 (1.921)
- CADSS total score, Median ([2]; 0.40 mg/kg, Day 1 (Predose)): 0.00
- CADSS total score, Mean (SD) ([2]; 0.40 mg/kg, Day 2): 0.73 (1.849)
- CADSS total score, Median ([2]; 0.40 mg/kg, Day 2): 0.00
- CADSS total score change from baseline, Mean (SD) [2, 12]: −0.18 (1.168)
- CADSS total score change from baseline, Median [2, 12]: 0.00
- CADSS total score, Mean (SD) ([2]; 0.40 mg/kg, Day 4 (4 Hour)): 3.21 (8.929)
- CADSS total score, Median ([2]; 0.40 mg/kg, Day 4 (4 Hour)): 0.00
- CADSS total score change from baseline, Mean (SD) [2, 13]: 3.16 (8.808)
- CADSS total score change from baseline, Median [2, 13]: 0.00
- CADSS total score, Mean (SD) ([2]; 0.40 mg/kg, Day 4 (40 Min)): 15.67 (13.932)
- CADSS total score, Median ([2]; 0.40 mg/kg, Day 4 (40 Min)): 10.00
- CADSS total score change from baseline, Mean (SD) [2, 14]: 15.67 (13.932)
- CADSS total score change from baseline, Median [2, 14]: 10.00
- CADSS total score, Mean (SD) ([2]; 0.40 mg/kg, Day 4 (Predose)): 0.19 (0.680)
- CADSS total score, Median ([2]; 0.40 mg/kg, Day 4 (Predose)): 0.00
- CADSS total score, Mean (SD) ([2]; 0.40 mg/kg, Day 5): 0.25 (0.550)
- CADSS total score, Median ([2]; 0.40 mg/kg, Day 5): 0.00
- CADSS total score change from baseline, Mean (SD) [2, 15]: 0.05 (0.759)
- CADSS total score change from baseline, Median [2, 15]: 0.00
- Time at which maximum mean overall BPRS and CADSS scores (CNS side effects) were observed ([2]; corresponding to the end of the infusion): 40 min
- Time point at which BPRS and CADSS scores returned back to baseline values ([2]; postdose, after the start of infusion): 4 h
- BPRS total score, Mean (SE) ([3]; Day 1 (4 Hour)): 0.00 (0.000)
- BPRS total score, Mean (SE) ([3]; Day 1 (15 Min.)): 1.91 (0.625)
- BPRS total score, Mean (SE) ([3]; Day 1 (30 Min.)): 3.10 (0.960)
- BPRS total score, Mean (SE) ([3]; Day 1 (40 Min.)): 4.33 (1.323)
- BPRS total score, Mean (SE) ([3]; Day 1 (Predose)): 0.09 (0.091)
- BPRS total score, Mean (SE) ([3]; Day 2): 0.00 (0.000)
- BPRS total score, Mean (SE) ([3]; Day 4 (2 Hour)): 0.43 (0.335)
- BPRS total score, Mean (SE) ([3]; Day 4 (4 Hour)): 0.29 (0.286)
- BPRS total score, Mean (SE) ([3]; Day 4 (15 Min.)): 1.90 (0.668)
- BPRS total score, Mean (SE) ([3]; Day 4 (30 Min.)): 3.32 (1.192)
- BPRS total score, Mean (SE) ([3]; Day 4 (40 Min.)): 3.16 (1.248)
- BPRS total score, Mean (SE) ([3]; Day 4 (Predose)): 0.05 (0.048)
- BPRS total score, Mean (SE) ([3]; Day 5): 0.00 (0.000)
